In patent US20260315464A1, “COMPOSITIONS, METHODS, AND SYSTEMS FOR MODULATING SPLICING OF MSH3” (REVIR THERAPEUTICS, INC., priority 2023, published 2026) one finds mrna remaining and EC50 data, which are given here for eight compounds.

As usually defined, the EC50 is the concentration that produces a half-maximal response.

The test deals with MSH3. The experiment in a line: QPCR assay for levels of MSH3 upon compound treatment in HEK293T or AD293 cells (fold-change of MSH3 transcript, EC50 of MSH3 downregulation; total MSH3 exons 13/14, exons 20/21; Table 8). The settings on record: for mrna remaining at 1 µM / mrna remaining at 10 µM: Homo sapiens, fold-change of the MSH3 transcript, normalized to GAPDH; for mrna remaining at 1 µM: 1 μM compound; for mrna remaining at 10 µM: 10 μM compound. Type of test: cell-based. The method in brief: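 MSH3 mRNA was quantified by TaqMan qPCR covering exons 13/14, exons 20/21, exon 13/PE14A and exon 20/PE21A, with GAPDH as reference. Cells used were HEK293T or AD293, treated with compound at 1 μM and […].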

For the compound `CN(c1ccc(N2Cc3c(C#N)cc(-c4nnn(C)n4)cc3C2=O)nn1)[C@H]1C[C@]2(C)CC[C@](C)(C1)N2` [Compound 693, 2-(6-(((1R,3s,5S)-1,5-dimethyl-8-azabicyclo[3.2.1]octan-3-yl)(methyl)amino)pyridazin-3-yl)-6-(2-methyl-2H-tetrazol-5-yl)-1-oxoisoindoline-4-carbonitrile], the mrna remaining at 1 µM is 94% and the mrna remaining at 10 µM came out at 40%.
As for `Cc1nn(C)cc1-c1cnc2c(c1)C(=O)N(c1ccc(OC3CCNC(C)(C)C3)nn1)C2` (centres unmarked) [Compound 226, 3-(1,3-dimethyl-1H-pyrazol-4-yl)-6-(6-((2,2-dimethylpiperidin-4-yl)oxy)pyridazin-3-yl)-6,7-dihydro-5H-pyrrolo[3,4-b]pyridin-5-one], the mrna remaining at 1 µM worked out at 86% and the mrna remaining at 10 µM is 58%.
For `Cc1nn(C)cc1-c1cc2c(c(Cl)n1)CN(c1ccc(O[C@H]3C[C@]4(C)CC[C@](C)(C3)N4)nn1)C2=O` [Compound 93, 4-chloro-6-(1,3-dimethyl-1H-pyrazol-4-yl)-2-(6-(((1R,3s,5S)-1,5-dimethyl-8-azabicyclo[3.2.1]octan-3-yl)oxy)pyridazin-3-yl)-2,3-dihydro-1H-pyrrolo[3,4-c]pyridin-1-one], the mrna remaining at 1 µM was found to be 91% and the mrna remaining at 10 µM was 72%.
On to `Cc1nn(C)nc1-c1cnc2c(c1)C(=O)N(c1ccc(OC3CC(C)(C)NC(C)(C)C3)nn1)C2` [Compound 179, 3-(2,5-dimethyl-2H-1,2,3-triazol-4-yl)-6-(6-((2,2,6,6-tetramethylpiperidin-4-yl)oxy)pyridazin-3-yl)-6,7-dihydro-5H-pyrrolo[3,4-b]pyridin-5-one], for which the mrna remaining at 1 µM came out at 93% and the mrna remaining at 10 µM stood at 8%.
Consider `Cc1nn(C)nc1-c1cc2c(nn1)CN(c1ccc(O[C@H]3C[C@]4(C)CC[C@](C)(C3)N4)nn1)C2=O` [Compound 596, 3-(2,5-dimethyl-2H-1,2,3-triazol-4-yl)-6-(6-(((1R,3s,5S)-1,5-dimethyl-8-azabicyclo[3.2.1]octan-3-yl)oxy)pyridazin-3-yl)-6,7-dihydro-5H-pyrrolo[3,4-c]pyridazin-5-one], for which the mrna remaining at 1 µM stood at 88% and the mrna remaining at 10 µM amounted to 106%.
As for `Cc1nn(C)nc1-c1cnc2c(c1)C(=O)N(c1ccc(N(C)[C@H]3C[C@]4(C)CC[C@](C)(C3)N4)nn1)C2` [Compound 178, 3-(2,5-dimethyl-2H-1,2,3-triazol-4-yl)-6-(6-(((1R,3s,5S)-1,5-dimethyl-8-azabicyclo[3.2.1]octan-3-yl)(methyl)amino)pyridazin-3-yl)-6,7-dihydro-5H-pyrrolo[3,4-b]pyridin-5-one], the mrna remaining at 1 µM was 10% and the mrna remaining at 10 µM was determined as 5%. Also, the EC50 (EC50 of MSH3 downregulation, XtalPi) amounted to 425 nM.
Consider `Cn1nc(Cl)c(-c2cnc3c(n2)C(=O)N(c2ccc(O[C@H]4C[C@]5(C)CC[C@](C)(C4)N5)nn2)C3)n1` [Compound 503, 3-(5-chloro-2-methyl-2H-1,2,3-triazol-4-yl)-6-(6-(((1R,3s,5S)-1,5-dimethyl-8-azabicyclo[3.2.1]octan-3-yl)oxy)pyridazin-3-yl)-6,7-dihydro-5H-pyrrolo[3,4-b]pyrazin-5-one], for which the mrna remaining at 1 µM is 70% and the mrna remaining at 10 µM was 18%.
Turning to `CCN1CC2CN(c3ccc(N4Cc5c(F)cc(-c6nn(C)nc6C)cc5C4=O)nn3)CC2C1` (centres unmarked) [Compound 663, 6-(2,5-dimethyl-2H-1,2,3-triazol-4-yl)-2-(6-(5-ethylhexahydropyrrolo[3,4-c]pyrrol-2(1H)-yl)pyridazin-3-yl)-4-fluoroisoindolin-1-one], the mrna remaining at 1 µM was determined as 232% and the mrna remaining at 10 µM was 62%.
